According to patent US10590140B2, “Tetrahydropyrimidodiazepine and dihydropyridodiazepine compounds for treating pain and pain related conditions” (ESTEVE PHARMACEUTICALS, S.A., priority 2016, dated 2020):

Molecular target: human α2δ-1 subunit of Cav2.2 calcium channel (Homo sapiens (Human), UniProt P54289)
Test: Binding assay to human α2δ-1 subunit of Cav2.2 calcium channel ([3H]-Gabapentin)
Conditions: binding to α2δ-1, [3H]-Gabapentin; read-out: Ki (nM) α2δ-1
Protocol: Binding Assay to Human α2δ-1 Subunit of Cav2.2 Calcium Channel.
NSB (non specific binding) was measured by adding 10 μM pregabalin. After 60 min incubation at 27° C., binding reaction was terminated by filtering through Multiscreen GF/C (Millipore) presoaked in 0.5% polyethyleneimine in Vacuum Manifold Station, followed by 3 washes with ice-cold filtration buffer containing 50 mM Tris-HCl, pH 7.4.
Filter plates were dried at 60° C. for 1 hour and 30 μl of scintillation cocktail were added to each well before radioactivity reading.

Sequence of human α2δ-1 subunit of Cav2.2 calcium channel (P54289 25-1103): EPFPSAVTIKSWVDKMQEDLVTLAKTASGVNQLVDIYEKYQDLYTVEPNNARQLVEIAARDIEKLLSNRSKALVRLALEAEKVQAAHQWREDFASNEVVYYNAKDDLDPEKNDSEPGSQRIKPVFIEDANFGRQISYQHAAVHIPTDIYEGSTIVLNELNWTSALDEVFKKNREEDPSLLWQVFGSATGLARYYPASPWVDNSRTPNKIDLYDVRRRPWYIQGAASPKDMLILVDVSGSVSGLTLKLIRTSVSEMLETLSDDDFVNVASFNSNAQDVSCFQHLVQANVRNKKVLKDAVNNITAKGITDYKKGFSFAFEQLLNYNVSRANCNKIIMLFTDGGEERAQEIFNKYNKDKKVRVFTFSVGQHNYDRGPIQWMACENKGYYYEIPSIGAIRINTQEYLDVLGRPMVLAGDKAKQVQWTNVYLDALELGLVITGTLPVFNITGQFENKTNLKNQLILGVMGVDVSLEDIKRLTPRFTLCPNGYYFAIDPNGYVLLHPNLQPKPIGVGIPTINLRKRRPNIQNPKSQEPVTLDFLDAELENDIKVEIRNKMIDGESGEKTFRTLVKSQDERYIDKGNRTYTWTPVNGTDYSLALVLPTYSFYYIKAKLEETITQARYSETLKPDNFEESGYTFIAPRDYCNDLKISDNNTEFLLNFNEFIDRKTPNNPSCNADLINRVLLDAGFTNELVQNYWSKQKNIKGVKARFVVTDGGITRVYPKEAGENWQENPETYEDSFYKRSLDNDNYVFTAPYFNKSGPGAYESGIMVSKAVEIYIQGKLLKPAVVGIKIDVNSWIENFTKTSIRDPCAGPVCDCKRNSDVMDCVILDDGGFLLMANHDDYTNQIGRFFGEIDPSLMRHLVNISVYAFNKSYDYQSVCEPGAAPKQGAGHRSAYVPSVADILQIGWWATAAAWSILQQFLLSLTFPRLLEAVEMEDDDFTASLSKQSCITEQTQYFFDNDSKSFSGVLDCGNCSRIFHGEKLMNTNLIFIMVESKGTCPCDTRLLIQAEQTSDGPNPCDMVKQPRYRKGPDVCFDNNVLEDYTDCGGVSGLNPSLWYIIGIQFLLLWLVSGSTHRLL

CN(CCC(Oc1cccc(N2CCN(C)c3cc(N(C)C)ncc3C2=O)c1)c1cccs1)C(=O)OCC[Si](C)(C)C (centres unmarked) [Example 59, 2-(trimethyl-silyl)ethyl (3-(3-(8-(dimethylamino)-1-methyl-5-oxo-1,2,3,5-tetrahydro-4H-pyrido[4,3-e] [1,4]diazepin-4-yl)phenoxy)-3-(thiophen-2-yl)propyl)(methyl) carbamate]
Ki: > 3000 nM

CCNc1cc2c(cn1)C(=O)N(c1cccc(COC(CCN(C)C(=O)OCC[Si](C)(C)C)c3cccs3)c1)CCN2C (centres unmarked) [Example 60, 2-(trimethyl-silyl)ethyl (3-((3-(8-(ethylamino)-1-methyl-5-oxo-1,2,3,5-tetrahydro-4H-pyrido[4,3-e] [1,4]diazepin-4-yl)benzyl)oxy)-3-(thiophen-2-yl)propyl) (methyl) carbamate]
Ki: > 3000 nM

CSc1ncc2c(n1)N(C)CCN(Cc1cccc(OC(CN(C)C(=O)OC(C)(C)C)c3ccccc3)c1)C2=O (centres unmarked) [Example 62, tert-Butyl methyl(2-(3-((9-methyl-2-(methylthio)-5-oxo-5,7,8,9-tetrahydro-6H-pyrimido[4,5-e][1,4]diazepin-6-yl)methyl)phenoxy)-2-phenylethyl) carbamate]
Ki: > 3000 nM

CSc1ncc2c(n1)N(C)CCN(Cc1ccc(OC(CN(C)C(=O)OC(C)(C)C)c3ccccc3)cc1)C2=O (centres unmarked) [Example 63, tert-butyl methyl(2-(4-((9-methyl-2-(methylthio)-5-oxo-5,7,8,9-tetrahydro-6H-pyrimido[4,5-e][1,4]diazepin-6-yl)methyl)phenoxy)-2-phenylethyl)carbamate]
Ki: > 3000 nM

CSc1ncc2c(n1)N(C)CCN(Cc1ccc(CN(C)C(=O)OC(C)(C)C)cc1)C2=O [Example 64, tert-butyl methyl(4-((9-methyl-2-(methylthio)-5-oxo-5,7,8,9-tetrahydro-6H-pyrimido[4,5-e][1,4]diazepin-6-yl)methyl)benzyl) carbamate]
Ki: > 3000 nM

CCNc1ncc2c(n1)N(C)CCN(c1cccc(CO[C@H](CCN(C)C(=O)OC(C)(C)C)c3ccccc3)c1)C2 [Example 65, tert-Butyl (R)-(3-((3-(2-(ethylamino)-9-methyl-5,7,8,9-tetrahydro-6H-pyrimido[4,5-e][1,4]diazepin-6-yl)benzyl)oxy)-3-phenylpropyl)(methyl)carbamate]
Ki: > 3000 nM

CCNc1ncc2c(n1)N(C)CCN(c1cccc(-c3nnc(C)o3)c1)C2 [Example 66, N-ethyl-9-methyl-6-(3-(5-methyl-1,3,4-oxadiazol-2-yl)phenyl)-6,7,8,9-tetrahydro-5H-pyrimido[4,5-e][1,4]diazepin-2-amine]
Ki: 500 to 3000 nM

CCNc1ncc2c(n1)N(C)CCN(Cc1cccc(OC)c1)C2 [Example 67, N-ethyl-6-(3-methoxybenzyl)-9-methyl-6,7,8,9-tetrahydro-5H-pyrimido[4,5-e][1,4]diazepin-2-amine]
Ki: > 3000 nM

CCNc1ncc2c(n1)N(C)CCN(Cc1ccc(OC)cc1)C2 [Example 68, N-ethyl-6-(4-methoxybenzyl)-9-methyl-6,7,8,9-tetrahydro-5H-pyrimido[4,5-e][1,4]diazepin-2-amine]
Ki: > 3000 nM

CCNc1ncc2c(n1)N(C)CCN(c1cccc(OC(CCN(C)C(=O)OC(C)(C)C)c3ccccc3)c1)C2=O (centres unmarked) [Example 69, tert-Butyl (3-(3-(2-(ethylamino)-9-methyl-5-oxo-5,7,8,9-tetrahydro-6H-pyrimido[4,5-e][1,4]diazepin-6-yl)phenoxy)-3-phenylpropyl)(methyl)carbamate]
Ki: > 3000 nM

CCNc1ncc2c(n1)N(C)CCN(c1cccc(O[C@H](CCN(C)C(=O)OC(C)(C)C)c3ccccc3)c1)C2=O [Example 70, tert-butyl (R)-(3-(3-(2-(ethylamino)-9-methyl-5-oxo-5,7,8,9-tetrahydro-6H-pyrimido[4,5-e][1,4]diazepin-6-yl)phenoxy)-3-phenylpropyl)(methyl) carbamate]
Ki: > 3000 nM
